According to patent US20070167499A1, “Biaryl linked hydroxamates: preparation and pharmaceutical applications” (A*BIO Pte Ltd., priority 2003, published 2007):

System: Ramos Burkitt-lymphoma cells
Assay: Apoptosis assay (Annexin V / PI flow cytometry)
Format: cell-based, human
Details: 48 h after treatment with 10 μM
Source text: In various therapies such as for proliferative disorders like cancer, the selective induction of apoptosis in proliferating cells such as tumor cells is one of the desirable approaches, and can be mediated by treatment with various anti-proliferative compounds [Blagosklonny MV, Oncogene, 23(16): 2967 (2004); Kaufmann and Eamshaw, Exp Cell Res. 256(1): 42-9 (2000)]. Programmed cell death or apoptosis is the cellular response to stress factors such as DNA damage introduced during conventional anti-cancer treatment. The concerted sequence of events during apoptosis, clearly differentiate this pathway from a non-coordinated form of cell death called necrosis. During the course of apoptosis, characteristic phenotypical cellular changes occur, which include the condensation of chromatin, the shrinkage of cells and finally the fragmentation of chromosomal DNA. One of the very early change caused by apoptotic events occurs in the phospholipids bilayer of the plasma membrane. The phospholipid phosphatidylserine is translocated from the inner to the outer side of the plasma-membrane and, as a result, is exposed to the extracellular space. One way of detecting early apoptotic cells is to determine the amount of phosphatidyl-serine at the extracellular side of the plasma-membrane which is accomplished by the standard flow cytometric method of Annexin V staining. The phospholipids recognizing protein Annexin V binds with high affinity to these inverted and exposed phosphatidyl-serines.
The ability of the compounds in this invention to induce apoptosis was tested in Ramos Burkitt-lymphoma cells. This cell line is one of the gold standard cell lines commonly used as a tissue culture model for B cell lymphoma. Representative compounds as indicated below were added to 80,000 cells per 500 μl growth medium (RPMI1640 medium supplemented with 2 mM L-Glutamine, 10% heat-inactivated FBS, 1 mM Na-Pyruvate and 10 mM HEPES) in 24 well format at various concentrations. Two days after the start of treatment, cells were collected and subjected to the Annexin V staining protocol following the instructions of the manufacturer (BD Biosciences). By using propidium iodide (PI) as a viability control, cells that stain positive for Annexin V, but negative for PI, are undergoing apoptosis.

O=C(Cc1ccc(-c2csc(NC(=O)Cc3ccccc3)n2)s1)NO [Example 1, N-Hydroxy-2-[5-(2-phenylacetylamino-thiazol-4-yl)-thiophen-2-yl]-acetamide]
% cells in late apoptosis (Ramos): 76%
